Where two headings read alike, the source gives them in different places.
What was measured:
Experiment in all cases: selectivity profiling in a panel of 340 wild-type kinases (Reaction Biology Europe)
Type in all cases: binding
[1] = target: T1, 340 wild-type kinases (Homo sapiens, UniProt P49840)
T1 construct: purchased Reaction Biology Europe

[2] = target: T2, 340 wild-type kinases (Homo sapiens, UniProt Q05513); conditions: PKMzeta, read-out: residual activity
T2 construct: purchased Reaction Biology Europe

[3] = target: T3, 340 wild-type kinases (Homo sapiens, UniProt P09769)
T3 construct: purchased Reaction Biology Europe
T3 sequence (P09769 whole entry): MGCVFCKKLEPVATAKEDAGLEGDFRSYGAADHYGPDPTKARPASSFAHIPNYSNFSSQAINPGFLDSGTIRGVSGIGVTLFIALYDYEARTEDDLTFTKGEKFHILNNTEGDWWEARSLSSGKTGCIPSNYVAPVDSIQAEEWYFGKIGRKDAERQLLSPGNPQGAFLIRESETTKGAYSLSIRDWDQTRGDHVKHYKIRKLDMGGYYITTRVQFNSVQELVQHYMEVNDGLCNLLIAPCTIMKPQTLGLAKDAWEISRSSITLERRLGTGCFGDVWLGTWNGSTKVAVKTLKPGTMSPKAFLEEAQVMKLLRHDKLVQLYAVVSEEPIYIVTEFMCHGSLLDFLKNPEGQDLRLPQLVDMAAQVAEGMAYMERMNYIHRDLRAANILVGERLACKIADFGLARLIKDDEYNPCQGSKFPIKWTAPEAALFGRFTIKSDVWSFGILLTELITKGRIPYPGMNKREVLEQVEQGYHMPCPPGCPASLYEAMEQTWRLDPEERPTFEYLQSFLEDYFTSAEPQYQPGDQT

[4] = target: T4, 340 wild-type kinases (Homo sapiens, UniProt Q9P1W9)
T4 construct: purchased Reaction Biology Europe
T4 sequence (Q9P1W9 whole entry): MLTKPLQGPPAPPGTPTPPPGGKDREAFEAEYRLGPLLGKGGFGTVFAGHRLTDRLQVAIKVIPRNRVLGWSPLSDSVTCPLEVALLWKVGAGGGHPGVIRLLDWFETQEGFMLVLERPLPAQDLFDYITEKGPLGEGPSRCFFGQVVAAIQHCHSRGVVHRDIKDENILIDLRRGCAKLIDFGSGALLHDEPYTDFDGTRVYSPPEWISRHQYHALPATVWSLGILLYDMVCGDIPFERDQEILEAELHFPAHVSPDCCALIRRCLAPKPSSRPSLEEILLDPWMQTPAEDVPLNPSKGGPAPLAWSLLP

[5] = target: T5, 340 wild-type kinases (Homo sapiens, UniProt O00141)
T5 construct: purchased Reaction Biology Europe
T5 sequence (O00141 1-431): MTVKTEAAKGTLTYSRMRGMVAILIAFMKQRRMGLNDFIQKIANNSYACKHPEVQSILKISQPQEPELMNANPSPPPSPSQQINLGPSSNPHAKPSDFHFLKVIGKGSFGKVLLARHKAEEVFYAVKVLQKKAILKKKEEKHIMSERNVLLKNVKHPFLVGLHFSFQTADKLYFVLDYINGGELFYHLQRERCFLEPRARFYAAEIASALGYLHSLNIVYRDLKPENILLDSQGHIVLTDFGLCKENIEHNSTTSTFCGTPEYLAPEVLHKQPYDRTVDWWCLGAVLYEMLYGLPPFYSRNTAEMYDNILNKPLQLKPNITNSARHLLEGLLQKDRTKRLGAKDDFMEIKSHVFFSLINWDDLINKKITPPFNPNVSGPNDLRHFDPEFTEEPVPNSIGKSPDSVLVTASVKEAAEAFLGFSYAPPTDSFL

[6] = target: T6, 340 wild-type kinases (Homo sapiens, UniProt P45983)
T6 construct: purchased Reaction Biology Europe

[7] = target: T7, 340 wild-type kinases (Homo sapiens, UniProt P53779)
T7 construct: purchased Reaction Biology Europe
T7 sequence (P53779 whole entry): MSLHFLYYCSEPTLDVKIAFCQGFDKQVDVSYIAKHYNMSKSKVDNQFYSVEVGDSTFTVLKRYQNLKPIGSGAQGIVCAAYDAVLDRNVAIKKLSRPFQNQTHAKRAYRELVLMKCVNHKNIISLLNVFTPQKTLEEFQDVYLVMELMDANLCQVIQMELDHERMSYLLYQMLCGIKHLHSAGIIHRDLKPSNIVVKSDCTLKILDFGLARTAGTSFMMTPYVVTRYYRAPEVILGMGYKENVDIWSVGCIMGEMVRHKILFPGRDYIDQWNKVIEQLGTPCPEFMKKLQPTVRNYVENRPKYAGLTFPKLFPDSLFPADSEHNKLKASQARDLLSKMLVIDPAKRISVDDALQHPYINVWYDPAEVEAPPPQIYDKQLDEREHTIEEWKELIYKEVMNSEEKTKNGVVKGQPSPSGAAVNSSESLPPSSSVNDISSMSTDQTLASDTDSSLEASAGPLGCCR

[8] = target: T8, 340 wild-type kinases (Homo sapiens, UniProt Q16620)
T8 construct: purchased Reaction Biology Europe
T8 sequence (Q16620 32-822): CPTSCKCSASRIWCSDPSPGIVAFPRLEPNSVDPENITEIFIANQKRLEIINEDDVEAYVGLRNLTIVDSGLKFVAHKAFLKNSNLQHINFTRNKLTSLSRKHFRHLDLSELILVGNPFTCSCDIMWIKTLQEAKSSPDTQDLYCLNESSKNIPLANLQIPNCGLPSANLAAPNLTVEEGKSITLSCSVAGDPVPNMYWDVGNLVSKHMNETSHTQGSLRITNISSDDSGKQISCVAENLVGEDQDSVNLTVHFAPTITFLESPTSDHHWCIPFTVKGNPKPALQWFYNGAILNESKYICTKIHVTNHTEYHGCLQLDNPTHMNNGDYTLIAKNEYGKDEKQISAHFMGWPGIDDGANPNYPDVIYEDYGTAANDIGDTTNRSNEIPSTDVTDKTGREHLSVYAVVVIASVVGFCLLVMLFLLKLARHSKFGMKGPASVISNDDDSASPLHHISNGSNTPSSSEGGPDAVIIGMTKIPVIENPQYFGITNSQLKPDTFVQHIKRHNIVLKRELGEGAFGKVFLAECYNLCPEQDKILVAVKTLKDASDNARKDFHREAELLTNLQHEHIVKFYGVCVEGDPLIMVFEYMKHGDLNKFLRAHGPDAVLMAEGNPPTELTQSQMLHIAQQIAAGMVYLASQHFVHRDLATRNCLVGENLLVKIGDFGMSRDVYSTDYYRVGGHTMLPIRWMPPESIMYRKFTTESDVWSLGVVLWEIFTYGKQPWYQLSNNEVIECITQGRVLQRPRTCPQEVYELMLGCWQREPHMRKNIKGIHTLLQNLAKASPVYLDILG

[9] = target: T9, 340 wild-type kinases (Homo sapiens, UniProt P51817)
T9 construct: purchased Reaction Biology Europe
T9 sequence (P51817 1-358): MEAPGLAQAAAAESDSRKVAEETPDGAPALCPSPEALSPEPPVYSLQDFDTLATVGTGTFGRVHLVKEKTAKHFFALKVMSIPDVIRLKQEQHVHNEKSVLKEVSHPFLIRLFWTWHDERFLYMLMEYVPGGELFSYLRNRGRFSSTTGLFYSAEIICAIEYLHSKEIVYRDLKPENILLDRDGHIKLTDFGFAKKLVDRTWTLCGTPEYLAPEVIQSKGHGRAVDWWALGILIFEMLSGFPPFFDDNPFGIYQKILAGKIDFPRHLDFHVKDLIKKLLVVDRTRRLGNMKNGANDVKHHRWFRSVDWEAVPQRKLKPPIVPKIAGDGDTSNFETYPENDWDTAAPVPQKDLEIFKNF

[10] = target: T10, 340 wild-type kinases (Homo sapiens, UniProt Q13554)
T10 construct: purchased Reaction Biology Europe

[11] = target: T11, 340 wild-type kinases (Homo sapiens, UniProt P07332)
T11 construct: purchased Reaction Biology Europe
T11 sequence (P07332 whole entry): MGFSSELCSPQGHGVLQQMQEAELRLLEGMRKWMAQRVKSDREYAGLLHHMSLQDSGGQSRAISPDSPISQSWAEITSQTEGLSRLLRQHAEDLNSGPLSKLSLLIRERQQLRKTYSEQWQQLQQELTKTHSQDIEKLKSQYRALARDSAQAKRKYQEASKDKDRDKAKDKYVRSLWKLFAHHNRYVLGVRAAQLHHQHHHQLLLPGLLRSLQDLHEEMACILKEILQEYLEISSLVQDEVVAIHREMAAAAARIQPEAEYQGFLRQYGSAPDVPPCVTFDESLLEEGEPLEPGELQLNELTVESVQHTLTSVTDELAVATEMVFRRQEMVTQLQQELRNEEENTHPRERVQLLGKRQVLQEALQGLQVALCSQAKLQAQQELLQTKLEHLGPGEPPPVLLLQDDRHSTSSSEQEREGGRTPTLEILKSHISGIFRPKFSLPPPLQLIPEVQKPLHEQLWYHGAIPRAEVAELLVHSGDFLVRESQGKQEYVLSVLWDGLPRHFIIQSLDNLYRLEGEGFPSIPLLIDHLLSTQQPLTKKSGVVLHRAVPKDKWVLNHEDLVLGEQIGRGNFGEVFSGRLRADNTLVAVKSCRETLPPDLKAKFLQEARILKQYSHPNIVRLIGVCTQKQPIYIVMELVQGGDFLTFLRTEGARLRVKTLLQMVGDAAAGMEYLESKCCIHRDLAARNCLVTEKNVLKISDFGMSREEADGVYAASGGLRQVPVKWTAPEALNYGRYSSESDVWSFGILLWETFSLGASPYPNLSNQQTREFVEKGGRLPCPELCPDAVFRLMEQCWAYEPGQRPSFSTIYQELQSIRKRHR

[12] = target: T12, 340 wild-type kinases (Homo sapiens, UniProt P49760)
T12 construct: purchased Reaction Biology Europe

[13] = target: T13, 340 wild-type kinases (Homo sapiens, UniProt P17948)
T13 construct: purchased Reaction Biology Europe

[14] = target: T14, 340 wild-type kinases (Homo sapiens, UniProt P07949)
T14 construct: purchased Reaction Biology Europe
T14 sequence (P07949 29-1114): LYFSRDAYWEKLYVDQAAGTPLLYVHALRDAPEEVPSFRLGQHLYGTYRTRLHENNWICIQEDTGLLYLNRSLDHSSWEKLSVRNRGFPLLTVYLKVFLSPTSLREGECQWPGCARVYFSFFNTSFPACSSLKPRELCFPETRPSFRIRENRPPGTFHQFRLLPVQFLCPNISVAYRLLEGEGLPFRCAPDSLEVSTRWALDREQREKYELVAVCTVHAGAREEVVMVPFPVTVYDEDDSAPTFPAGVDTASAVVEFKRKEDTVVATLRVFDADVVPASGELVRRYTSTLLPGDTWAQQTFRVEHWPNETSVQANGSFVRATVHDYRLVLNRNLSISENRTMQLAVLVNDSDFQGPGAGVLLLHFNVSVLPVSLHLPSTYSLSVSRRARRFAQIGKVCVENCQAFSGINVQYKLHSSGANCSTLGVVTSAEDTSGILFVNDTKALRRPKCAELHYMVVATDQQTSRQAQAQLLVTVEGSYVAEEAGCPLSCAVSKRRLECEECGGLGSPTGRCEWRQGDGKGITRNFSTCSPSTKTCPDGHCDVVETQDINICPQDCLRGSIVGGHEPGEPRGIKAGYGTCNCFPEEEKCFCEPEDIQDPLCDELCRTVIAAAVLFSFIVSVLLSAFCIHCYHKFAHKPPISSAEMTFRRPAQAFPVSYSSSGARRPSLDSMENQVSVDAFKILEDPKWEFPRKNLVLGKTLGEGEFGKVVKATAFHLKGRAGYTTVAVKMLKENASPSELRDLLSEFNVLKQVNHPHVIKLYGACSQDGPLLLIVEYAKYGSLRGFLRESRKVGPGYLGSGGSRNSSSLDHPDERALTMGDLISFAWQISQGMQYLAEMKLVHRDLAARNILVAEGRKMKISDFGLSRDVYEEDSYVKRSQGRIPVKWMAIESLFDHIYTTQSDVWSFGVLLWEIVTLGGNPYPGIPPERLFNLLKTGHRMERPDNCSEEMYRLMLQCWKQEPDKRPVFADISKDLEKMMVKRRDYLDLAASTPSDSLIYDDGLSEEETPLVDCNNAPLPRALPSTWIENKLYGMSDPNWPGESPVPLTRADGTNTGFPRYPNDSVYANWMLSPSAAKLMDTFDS

[15] = target: T15, 340 wild-type kinases (Homo sapiens, UniProt Q96GD4)
T15 construct: purchased Reaction Biology Europe
T15 sequence (Q96GD4 whole entry): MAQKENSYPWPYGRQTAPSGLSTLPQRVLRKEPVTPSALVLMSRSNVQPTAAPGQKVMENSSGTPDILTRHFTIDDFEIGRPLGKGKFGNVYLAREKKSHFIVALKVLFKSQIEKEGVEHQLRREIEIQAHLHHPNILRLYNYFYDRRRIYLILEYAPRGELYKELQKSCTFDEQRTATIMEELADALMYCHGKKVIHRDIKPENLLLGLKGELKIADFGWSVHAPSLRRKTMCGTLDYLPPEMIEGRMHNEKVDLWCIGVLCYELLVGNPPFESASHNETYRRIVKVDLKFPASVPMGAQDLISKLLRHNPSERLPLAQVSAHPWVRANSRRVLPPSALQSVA

[16] = target: T16, 340 wild-type kinases (Homo sapiens, UniProt Q15759)
T16 construct: purchased Reaction Biology Europe

T1 sequence (P49840 whole entry): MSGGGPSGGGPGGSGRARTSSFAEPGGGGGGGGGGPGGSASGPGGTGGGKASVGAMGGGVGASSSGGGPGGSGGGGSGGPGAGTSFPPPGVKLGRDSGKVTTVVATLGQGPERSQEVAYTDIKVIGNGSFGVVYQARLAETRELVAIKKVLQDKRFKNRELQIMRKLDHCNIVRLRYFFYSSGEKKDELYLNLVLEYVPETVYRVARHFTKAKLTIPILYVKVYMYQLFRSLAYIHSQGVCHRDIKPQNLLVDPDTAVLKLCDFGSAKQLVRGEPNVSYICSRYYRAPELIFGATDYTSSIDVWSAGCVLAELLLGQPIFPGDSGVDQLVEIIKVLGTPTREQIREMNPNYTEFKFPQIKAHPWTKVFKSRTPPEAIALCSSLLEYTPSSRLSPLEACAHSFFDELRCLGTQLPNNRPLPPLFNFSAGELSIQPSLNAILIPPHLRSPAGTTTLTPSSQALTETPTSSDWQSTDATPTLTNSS

CNC(=O)c1ccc2c(c1)C(=O)c1ccc(Nc3ccc(F)c(NC(=O)C4CC4)c3)cc1CC2 [Compound 2015]
remaining activity at 0.2 µM ([1]; 0.2 µM 2015, read-out: GSK3alpha residual activity): 110%
remaining activity at 1 µM ([1]; 1 µM 2015, read-out: GSK3alpha residual activity): 82.6%
remaining activity at 0.2 µM ([1]; GSK3alpha, 0.2 µM, read-out: residual activity): 110%
remaining activity at 1 µM ([1]; GSK3alpha, 1 µM, read-out: residual activity): 82.6%
remaining activity at 0.2 µM ([2]; 0.2 µM): 106%
remaining activity at 1 µM ([2]; 1 µM): 102%
remaining activity at 0.2 µM ([3]; 0.2 µM 2015, read-out: FGR residual activity): 101%
remaining activity at 1 µM ([3]; 1 µM 2015, read-out: FGR residual activity): 102%
remaining activity at 0.2 µM ([3]; FGR, 0.2 µM, read-out: residual activity): 101%
remaining activity at 1 µM ([3]; FGR, 1 µM, read-out: residual activity): 102%
remaining activity at 0.2 µM ([4]; 0.2 µM 2015, read-out: PIM2 residual activity): 119%
remaining activity at 1 µM ([4]; 1 µM 2015, read-out: PIM2 residual activity): 98.6%
remaining activity at 0.2 µM ([4]; PIM2, 0.2 µM, read-out: residual activity): 119%
remaining activity at 1 µM ([4]; PIM2, 1 µM, read-out: residual activity): 98.6%
remaining activity at 0.2 µM ([5]; 0.2 µM 2015, read-out: SGK1 residual activity): 95.9%
remaining activity at 1 µM ([5]; 1 µM 2015, read-out: SGK1 residual activity): 91.4%
remaining activity at 0.2 µM ([5]; SGK1, 0.2 µM, read-out: residual activity): 95.8%
remaining activity at 1 µM ([5]; SGK1, 1 µM, read-out: residual activity): 91.4%
remaining activity at 0.2 µM ([6]; 0.2 µM 2015, read-out: JNK1 residual activity): 107%
remaining activity at 1 µM ([6]; 1 µM 2015, read-out: JNK1 residual activity): 94.2%
remaining activity at 0.2 µM ([6]; JNK1, 0.2 µM, read-out: residual activity): 107%
remaining activity at 1 µM ([6]; JNK1, 1 µM, read-out: residual activity): 94.2%
remaining activity at 0.2 µM ([7]; 0.2 µM 2015, read-out: JNK3 residual activity): 90.9%
remaining activity at 1 µM ([7]; 1 µM 2015, read-out: JNK3 residual activity): 100%
remaining activity at 0.2 µM ([7]; JNK3, 0.2 µM, read-out: residual activity): 90.9%
remaining activity at 1 µM ([7]; JNK3, 1 µM, read-out: residual activity): 100%
remaining activity at 0.2 µM ([8]; 0.2 µM 2015, read-out: TRKB residual activity): 99.7%
remaining activity at 1 µM ([8]; 1 µM 2015, read-out: TRKB residual activity): 91.3%
remaining activity at 0.2 µM ([8]; TRKB, 0.2 µM, read-out: residual activity): 99.7%
remaining activity at 1 µM ([8]; TRKB, 1 µM, read-out: residual activity): 91.3%
remaining activity at 0.2 µM ([9]; 0.2 µM 2015, read-out: PRKX residual activity): 107%
remaining activity at 1 µM ([9]; 1 µM 2015, read-out: PRKX residual activity): 97.1%
remaining activity at 0.2 µM ([9]; PRKX, 0.2 µM, read-out: residual activity): 107%
remaining activity at 1 µM ([9]; PRKX, 1 µM, read-out: residual activity): 97%
remaining activity at 0.2 µM ([10]; 0.2 µM 2015, read-out: CAMK2B residual activity): 112%
remaining activity at 1 µM ([10]; 1 µM 2015, read-out: CAMK2B residual activity): 89%
remaining activity at 0.2 µM ([10]; CAMK2B, 0.2 µM, read-out: residual activity): 112%
remaining activity at 1 µM ([10]; CAMK2B, 1 µM, read-out: residual activity): 89%
remaining activity at 0.2 µM ([11]; 0.2 µM 2015, read-out: FES residual activity): 105%
remaining activity at 1 µM ([11]; 1 µM 2015, read-out: FES residual activity): 92.1%
remaining activity at 0.2 µM ([11]; FES, 0.2 µM, read-out: residual activity): 105%
remaining activity at 1 µM ([11]; FES, 1 µM, read-out: residual activity): 92.1%
remaining activity at 0.2 µM ([12]; 0.2 µM 2015, read-out: CLK2 residual activity): 110%
remaining activity at 1 µM ([12]; 1 µM 2015, read-out: CLK2 residual activity): 96.8%
remaining activity at 0.2 µM ([12]; CLK2, 0.2 µM, read-out: residual activity): 110%
remaining activity at 1 µM ([12]; CLK2, 1 µM, read-out: residual activity): 96.8%
remaining activity at 0.2 µM ([13]; 0.2 µM 2015, read-out: VEGFR1 residual activity): 113%
remaining activity at 1 µM ([13]; 1 µM 2015, read-out: VEGFR1 residual activity): 116%
remaining activity at 0.2 µM ([13]; VEGFR1, 0.2 µM, read-out: residual activity): 113%
remaining activity at 1 µM ([13]; VEGFR1, 1 µM, read-out: residual activity): 116%
remaining activity at 0.2 µM ([14]; 0.2 µM 2015, read-out: RET residual activity): 105%
remaining activity at 1 µM ([14]; 1 µM 2015, read-out: RET residual activity): 80.3%
remaining activity at 0.2 µM ([14]; RET, 0.2 µM, read-out: residual activity): 105%
remaining activity at 1 µM ([14]; RET, 1 µM, read-out: residual activity): 80.3%
remaining activity at 0.2 µM ([15]; 0.2 µM 2015, read-out: AuroraB residual activity): 120%
remaining activity at 1 µM ([15]; 1 µM 2015, read-out: AuroraB residual activity): 112%
remaining activity at 0.2 µM ([15]; AuroraB, 0.2 µM, read-out: residual activity): 120%
remaining activity at 1 µM ([15]; AuroraB, 1 µM, read-out: residual activity): 112%
remaining activity at 0.2 µM ([16]; 0.2 µM 2015, read-out: p38beta residual activity): 1.85%
remaining activity at 1 µM ([16]; 1 µM 2015, read-out: p38beta residual activity): 1.94%
remaining activity at 0.2 µM ([16]; p38beta, 0.2 µM, read-out: residual activity): 1.85%
remaining activity at 1 µM ([16]; p38beta, 1 µM, read-out: residual activity): 1.94%
